Columns and labels:
Type in all cases: in vivo
[1] = tested on: Plutella xylostella (Diamond Back Moth); assay: Example B5: Activity against Plutella xylostella, artificial diet in 24-well microtiter plates; settings: 192 h, application rate 200 ppm, eggs, assessed 8 days after infestation, read-out: effect in at least one of the two categories (mortality or growth inhibition)
Protocol: Example B5: Activity Against Plutella xylostella (Diamond Back Moth)
24-well microtiter plates with artificial diet were treated with aqueous test solutions prepared from 10′000 ppm DMSO stock solutions by pipetting. After drying, Plutella eggs were pipetted through a plastic stencil onto a gel blotting paper and the plate was closed with it. The samples were assessed for mortality and growth inhibition in comparison to untreated samples 8 days after infestation.

[2] = tested on: Chilo suppressalis (Striped Rice Stemborer); assay: Example B1: Activity against Chilo suppressalis, artificial diet in 24-well microtiter plates; settings: 144 h, application rate 200 ppm, L2 larvae, assessed 6 days after infestation, read-out: control (at least one of mortality, anti-feedant effect, growth inhibition)
Protocol: Example B1: Activity Against Chilo suppressalis (Striped Rice Stemborer)
24-well microtiter plates with artificial diet were treated with aqueous test solutions prepared from 10′000 ppm DMSO stock solutions by pipetting. After drying, the plates were infested with L2 larvae (6-8 per well). The samples were assessed for mortality, anti-feeding effect, and growth inhibition in comparison to untreated samples 6 days after infestation. Control of Chilo suppressalis by a test sample is given when at least one of the categories mortality, anti-feedant effect, and growth inhibition is higher than the untreated sample.

[3] = tested on: Spodoptera littoralis (Egyptian Cotton Leaf Worm); assay: Example B6: Activity against Spodoptera littoralis, sprayed cotton leaf discs on agar; settings: foliar, 72 h, application rate 200 ppm, L1 larvae, assessed 3 days after infestation, read-out: control (at least one of mortality, anti-feedant effect, growth inhibition)
Protocol: Example B6: Activity Against Spodoptera littoralis (Egyptian Cotton Leaf Worm)
Cotton leaf discs were placed onto agar in 24-well microtiter plates and sprayed with aqueous test solutions prepared from 10′000 ppm DMSO stock solutions. After drying the leaf discs were infested with five L1 larvae. The samples were assessed for mortality, anti-feeding effect, and growth inhibition in comparison to untreated samples 3 days after infestation. Control of Spodoptera littoralis by a test sample is given when at least one of the categories mortality, anti-feedant effect, and growth inhibition is higher than the untreated sample.

[4] = tested on: Diabrotica Balteata (Corn Root Worm); assay: Example B2: Activity against Diabrotica balteata, sprayed maize sprouts on agar; settings: 96 h, application rate 200 ppm, L2 larvae, assessed 4 days after infestation, read-out: effect in at least one of the two categories (mortality or growth inhibition)
Protocol: Example B2: Activity Against Diabrotica Balteata (Corn Root Worm)
Maize sprouts placed onto an agar layer in 24-well microtiter plates were treated with aqueous test solutions prepared from 10′000 ppm DMSO stock solutions by spraying. After drying, the plates were infested with L2 larvae (6 to 10 per well). The samples were assessed for mortality and growth inhibition in comparison to untreated samples 4 days after infestation.

[5] = tested on: Euschistus heros (Neotropical Brown Stink Bug); assay: Example B3: Activity against Euschistus heros, sprayed soybean leaves on agar; settings: 120 h, application rate 200 ppm, N2 nymphs, assessed 5 days after infestation, read-out: effect in at least one of the two categories (mortality or growth inhibition)
Protocol: Example B3: Activity Against Euschistus heros (Neotropical Brown Stink Bug)
Soybean leaves on agar in 24-well microtiter plates were sprayed with aqueous test solutions prepared from 10′000 ppm DMSO stock solutions. After drying the leaves were infested with N2 nymphs. The samples were assessed for mortality and growth inhibition in comparison to untreated samples 5 days after infestation.

[6] = tested on: Myzus persicae (Green peach aphid); assay: Example B4: Activity against Myzus persicae, feeding/contact activity on sunflower leaf discs; settings: foliar, 144 h, application rate 200 ppm, aphid population of mixed ages, assessed 6 days after infestation
Protocol: Example B4: Activity against Myzus persicae (Green peach aphid) Feeding/Contact activity Sunflower leaf discs were placed onto agar in a 24-well microtiter plate and sprayed with aqueous test solutions prepared from 10′000 ppm DMSO stock solutions. After drying, the leaf discs were infested with an aphid population of mixed ages. The samples were assessed for mortality 6 days after infestation.

CCS(=O)(=O)c1c(N2Cc3cc4c(cc3C2=O)OC(F)(F)O4)nc2cc(C(C)(F)F)ccn12 [P8, 6-[7-(1,1-difluoroethyl)-3-ethylsulfonyl-imidazo[1,2-a]pyridin-2-yl]-2,2-difluoro-5H-[1,3]dioxolo[4,5-f]isoindol-7-one]
≥ 80%: percent effect (mortality or growth inhibition) at 200 ppm [1] | control (mortality, anti-feedant effect or growth inhibition) at 200 ppm [2] | percent control (mortality, anti-feedant effect or growth inhibition) at 200 ppm [3] | percent effect (mortality or growth inhibition) at 200 ppm [4]

CCS(=O)(=O)c1c(N2Cc3cc4c(cc3C2=O)OC(F)(F)O4)nc2ccc(I)cn12 [P17, 6-(3-ethylsulfonyl-6-iodo-imidazo[1,2-a]pyridin-2-yl)-2,2-difluoro-5H-[1,3]dioxolo[4,5-f]isoindol-7-one]
≥ 80%: percent effect (mortality or growth inhibition) at 200 ppm [1] | control (mortality, anti-feedant effect or growth inhibition) at 200 ppm [2] | percent control (mortality, anti-feedant effect or growth inhibition) at 200 ppm [3] | percent effect (mortality or growth inhibition) at 200 ppm [4]

CCS(=O)(=O)c1c(N2Cc3cc4c(cc3C2=O)OC(F)(F)O4)nc2ccc(Br)cn12 [P10, 6-(6-bromo-3-ethylsulfonyl-imidazo[1,2-a]pyridin-2-yl)-2,2-difluoro-5H-[1,3]dioxolo[4,5-f]isoindol-7-one]
≥ 80%: control (mortality, anti-feedant effect or growth inhibition) at 200 ppm [2]

CCS(=O)(=O)c1c(N2Cc3cc4c(cc3C2=O)OC(F)(F)O4)nc2cc(I)ccn12 [P16, 6-(3-ethylsulfonyl-7-iodo-imidazo[1,2-a]pyridin-2-yl)-2,2-difluoro-5H-[1,3]dioxolo[4,5-f]isoindol-7-one]
≥ 80%: percent effect (mortality or growth inhibition) at 200 ppm [1] | control (mortality, anti-feedant effect or growth inhibition) at 200 ppm [2] | percent control (mortality, anti-feedant effect or growth inhibition) at 200 ppm [3] | percent effect (mortality or growth inhibition) at 200 ppm [4]

CCS(=O)(=O)c1c(N2Cc3cc4c(cc3C2=O)OC(F)(F)O4)nc2ccc(Cl)cn12 [P11, 6-(6-chloro-3-ethylsulfonyl-imidazo[1,2-a]pyridin-2-yl)-2,2-difluoro-5H-[1,3]dioxolo[4,5-f]isoindol-7-one]
≥ 80%: percent effect (mortality or growth inhibition) at 200 ppm [1] | percent effect (mortality or growth inhibition) at 200 ppm [5] | control (mortality, anti-feedant effect or growth inhibition) at 200 ppm [2] | percent control (mortality, anti-feedant effect or growth inhibition) at 200 ppm [3] | percent effect (mortality or growth inhibition) at 200 ppm [4]

CCS(=O)(=O)c1c(N2Cc3cc4c(cc3C2=O)OC(F)(F)O4)nn2cc(C(F)(F)F)ccc12 [P3, 6-[3-ethylsulfonyl-6-(trifluoromethyl)pyrazolo[1,5-a]pyridin-2-yl]-2,2-difluoro-5H-[1,3]dioxolo[4,5-f]isoindol-7-one]
≥ 80%: percent effect (mortality or growth inhibition) at 200 ppm [1] | control (mortality, anti-feedant effect or growth inhibition) at 200 ppm [2] | percent control (mortality, anti-feedant effect or growth inhibition) at 200 ppm [3] | percent effect (mortality or growth inhibition) at 200 ppm [4] | mortality at 200 ppm [6]

CCS(=O)(=O)c1c(N2Cc3cc4c(cc3C2=O)OC(F)(F)O4)nc2ccc(C(F)(F)F)cn12 [P1, 6-[3-ethylsulfonyl-6-(trifluoromethyl)imidazo[1,2-a]pyridin-2-yl]-2,2-difluoro-5H-[1,3]dioxolo[4,5-f]isoindol-7-one]
≥ 80%: percent effect (mortality or growth inhibition) at 200 ppm [1] | control (mortality, anti-feedant effect or growth inhibition) at 200 ppm [2] | percent control (mortality, anti-feedant effect or growth inhibition) at 200 ppm [3] | percent effect (mortality or growth inhibition) at 200 ppm [4] | mortality at 200 ppm [6]

CCS(=O)(=O)c1c(N2Cc3cc4c(cc3C2=O)OC(F)(F)O4)nn2cc(Cl)ccc12 [P14, 6-(6-chloro-3-ethylsulfonyl-pyrazolo[1,5-a]pyridin-2-yl)-2,2-difluoro-5H-[1,3]dioxolo[4,5-f]isoindol-7-one]
≥ 80%: percent effect (mortality or growth inhibition) at 200 ppm [1] | control (mortality, anti-feedant effect or growth inhibition) at 200 ppm [2] | percent control (mortality, anti-feedant effect or growth inhibition) at 200 ppm [3] | percent effect (mortality or growth inhibition) at 200 ppm [4] | mortality at 200 ppm [6]

CCS(=O)(=O)c1c(N2Cc3cc4c(cc3C2=O)OC(F)(F)O4)nn2ccc(C(F)(F)F)cc12 [P6, 6-[3-ethylsulfonyl-5-(trifluoromethyl)pyrazolo[1,5-a]pyridin-2-yl]-2,2-difluoro-5H-[1,3]dioxolo[4,5-f]isoindol-7-one]
≥ 80%: percent effect (mortality or growth inhibition) at 200 ppm [1] | control (mortality, anti-feedant effect or growth inhibition) at 200 ppm [2] | percent control (mortality, anti-feedant effect or growth inhibition) at 200 ppm [3] | percent effect (mortality or growth inhibition) at 200 ppm [4]

CCS(=O)(=O)c1c(N2Cc3cc4c(cc3C2=O)OC(F)(F)O4)nn2cc(Br)ccc12 [P12, 6-(6-bromo-3-ethylsulfonyl-pyrazolo[1,5-a]pyridin-2-yl)-2,2-difluoro-5H-[1,3]dioxolo[4,5-f]isoindol-7-one]
≥ 80%: percent effect (mortality or growth inhibition) at 200 ppm [1] | control (mortality, anti-feedant effect or growth inhibition) at 200 ppm [2] | percent control (mortality, anti-feedant effect or growth inhibition) at 200 ppm [3] | percent effect (mortality or growth inhibition) at 200 ppm [4] | mortality at 200 ppm [6]

CCS(=O)(=O)c1c(N2Cc3cc4c(cc3C2=O)OC(F)(F)O4)nc2cc(Br)ccn12 [P9, 6-(7-bromo-3-ethylsulfonyl-imidazo[1,2-a]pyridin-2-yl)-2,2-difluoro-5H-[1,3]dioxolo[4,5-f]isoindol-7-one]
≥ 80%: percent effect (mortality or growth inhibition) at 200 ppm [1] | control (mortality, anti-feedant effect or growth inhibition) at 200 ppm [2] | percent control (mortality, anti-feedant effect or growth inhibition) at 200 ppm [3] | percent effect (mortality or growth inhibition) at 200 ppm [4]

CCS(=O)(=O)c1c(N2Cc3cc4c(cc3C2=O)OC(F)(F)O4)nc2cc(Cl)ccn12 [P13, 6-(7-chloro-3-ethylsulfonyl-imidazo[1,2-a]pyridin-2-yl)-2,2-difluoro-5H-[1,3]dioxolo[4,5-f]isoindol-7-one]
≥ 80%: percent effect (mortality or growth inhibition) at 200 ppm [1] | control (mortality, anti-feedant effect or growth inhibition) at 200 ppm [2] | percent control (mortality, anti-feedant effect or growth inhibition) at 200 ppm [3] | percent effect (mortality or growth inhibition) at 200 ppm [4]

CCS(=O)(=O)c1c(N2Cc3cc4c(cc3C2=O)OC(F)(F)O4)nc2cc(C(F)(F)F)ccn12 [P5, 6-[3-ethylsulfonyl-7-(trifluoromethyl)imidazo[1,2-a]pyridin-2-yl]-2,2-difluoro-5H-[1,3]dioxolo[4,5-f]isoindol-7-one]
≥ 80%: percent effect (mortality or growth inhibition) at 200 ppm [1] | control (mortality, anti-feedant effect or growth inhibition) at 200 ppm [2] | percent control (mortality, anti-feedant effect or growth inhibition) at 200 ppm [3] | percent effect (mortality or growth inhibition) at 200 ppm [4]

CCS(=O)(=O)c1cc2ccccc2nc1N1Cc2cc3c(cc2C1=O)OC(F)(F)O3 [P2, 6-(3-ethylsulfonyl-2-quinolyl)-2,2-difluoro-5H-[1,3]dioxolo[4,5-f]isoindol-7-one]
≥ 80%: percent effect (mortality or growth inhibition) at 200 ppm [1] | percent effect (mortality or growth inhibition) at 200 ppm [5] | percent control (mortality, anti-feedant effect or growth inhibition) at 200 ppm [3] | percent effect (mortality or growth inhibition) at 200 ppm [4] | mortality at 200 ppm [6]

CCS(=O)(=O)c1c(N2Cc3cc4c(cc3C2=O)OC(F)(F)O4)nc2ccc(C(C)(F)F)cn12 [P7, 6-[6-(1,1-difluoroethyl)-3-ethylsulfonyl-imidazo[1,2-a]pyridin-2-yl]-2,2-difluoro-5H-[1,3]dioxolo[4,5-f]isoindol-7-one]
≥ 80%: percent effect (mortality or growth inhibition) at 200 ppm [1] | control (mortality, anti-feedant effect or growth inhibition) at 200 ppm [2] | percent control (mortality, anti-feedant effect or growth inhibition) at 200 ppm [3] | percent effect (mortality or growth inhibition) at 200 ppm [4]

CCS(=O)(=O)c1c(N2Cc3cc4c(cc3C2=O)OC(F)(F)O4)nn2ccc(Cl)cc12 [P15, 6-(5-chloro-3-ethylsulfonyl-pyrazolo[1,5-a]pyridin-2-yl)-2,2-difluoro-5H-[1,3]dioxolo[4,5-f]isoindol-7-one]
≥ 80%: percent effect (mortality or growth inhibition) at 200 ppm [1] | percent effect (mortality or growth inhibition) at 200 ppm [5] | control (mortality, anti-feedant effect or growth inhibition) at 200 ppm [2] | percent control (mortality, anti-feedant effect or growth inhibition) at 200 ppm [3] | percent effect (mortality or growth inhibition) at 200 ppm [4]

Reference: patent US20250145640A1, “2,2-DIFLUORO-5H-[1,3]DIOXOLO[4,5-F]ISOINDOL-7-ONE DERIVATIVES AS PESTICIDES” (SYNGENTA CROP PROTECTION AG, priority 2021, published 2025)
